In patent publication US20250092017A1, “2-PIPERIDYL OR 2-PYRAZOLYL SUBSTITUTED PYRIMIDINE COMPOUND SERVING AS EGFR INHIBITOR” (SUZHOU PUHE BIOPHARMA CO., LTD., priority 2022, published 2025):
Read-outs that look alike come from different tables or passages of the source.

Assays:
EGFR (L858R/C797S) = EGFR (L858R/C797S) (Homo sapiens, UniProt P00533, C797S/L858R); experiment: MSA (Mobility Shift Assay) kinase activity, EGFR-L858R-C797S; assay type: biochemical
Procedure: (§1) The MSA (Mobility Shift Assay) method was used to detect the effects of small molecule inhibitors on the kinase activity of EGFR wild type and its mutants (EGFR^wt, EGFR-L858R, EGFR-L858R-T790M-C797S, EGFR-L858R-C797S).
(§2) 10 μL of kinase solution at 2.5 times the final concentration was added to the compound wells and positive control Max wells; 10 μL of 1x kinase buffer was added to the negative control Min wells. The mixture was centrifuged at 1000 rpm for 30 seconds, and the reaction plate was shaken to mix the solution well and then incubated at room temperature for 10 minutes. A mixed solution of ATP and kinase substrate at 5/3 times the final concentration was prepared in 1x kinase buffer. 15 μL of a mixed solution of ATP and substrate at 5/3 times the final concentration was added to initiate the reaction. The 384-well plate was centrifuged at 1000 rpm for 30 seconds, and shaken to mix the solution well and then incubated at room temperature for the corresponding time. 30 μL of stop detection solution was added to stop the kinase reaction, and the mixture was centrifuged at 1000 rpm for 30 seconds, and then to mixed well by shaking. The conversion rate was read using Caliper EZ Reader.
(§3) wherein: Conversion %_sample is the conversion rate reading of the sample; Conversion %_min is the mean of the negative control wells, representing the conversion rate reading of the wells without enzyme activity; Conversion %_max is the mean of the positive control wells, representing the conversion rate reading of the wells without compound inhibition.
(§4) The log (inhibitor) vs. response —Variable slope of the analysis software GraphPad Prism 5 was used to fit the dose-effect curve, where the log value of the concentration was used as the X-axis and the percentage inhibition rate was used as the Y-axis, to obtain the IC50 value of each compound on the enzyme activity.
(§5) The calculation formula is Y=Bottom+(Top-Bottom)/(1+10^((Log IC50−X)*Hill Slope))

Ba/F3-FL-EGFR = target: T1, Ba/F3-FL-EGFR (Homo sapiens, UniProt P00533); experiment: CellTiter-Glo proliferation, Ba/F3-FL-EGFR; assay type: cell-based; conditions: 72 hours, read-out: Ba/F3-FL-EGFR IC50/nM
T1 construct: FL read as full length
Procedure: (§6) Promega CellTiter-Glo reagent was used to detect the effects of small molecule inhibitors on the proliferation of five Ba/F3 cell lines (Ba/F3-FL-EGFR, Ba/F3-FL-EGFR-L858R, Ba/F3-FL-EGFR-L858R-T790M-C797S, Ba/F3-TEL-EGFR-L858R-C797S and Ba/F3-FL-EGFR-del19-C797S).
(§7) The cell lines were cultured in an incubator at 37° C. and 5% CO2. Cells were passaged regularly and cells in the logarithmic phase were used for plating. 95 μL of cell suspension was added to each well of the cell plate, and culture medium without cells (containing 0.1% DMSO) was added to the Min control wells. Substance addition for compound detection cell plate: 5 μL of 20× compound working solution was added to the cell culture plate as shown in the table below. 50 μL of DMSO-cell culture medium mixture was added to the Max control, with the final DMSO concentration of 0.1%. 5 μL of DMSO-cell culture medium mixture was added to the Max control. The final DMSO concentration was 0.1%.
(§8) The compounds to be tested were added as per the table below
(§9) Cell viability was detected by CellTiter-Glo luminescence assay. Data analysis:
(§10) The cell proliferation inhibition rate (Inhibition Rate) data was processed using the following formula: […]
(§11) wherein: RLUDrug represents the relative luminescence unit of the cells with the addition of drug, RLUMin represents the luminescence unit of the culture medium, and RLUMax represents the relative luminescence unit of the cells with the addition of DMSO.
(§12) The inhibition rates corresponding to different concentrations of compounds were calculated in EXCEL, and then the inhibition rate curve was plotted using GraphPad Prism software and related parameters including the maximum and minimum inhibition rates of cells and IC50 values were calculated.

[1] = target: T2, Ba/F3-TEL-EGFR-L858R-C797S (Homo sapiens, UniProt P00533, C797S/L858R, cells depend on it); experiment: CellTiter-Glo proliferation, Ba/F3-TEL-EGFR-L858R-C797S; assay type: cell-based; conditions: 72 hours, read-out: Ba/F3-TEL-EGFR-L858R-C797S IC50/nM
T2 construct: fused on or other part: N-terminal TEL (ETV6) oligomerising part fused to the EGFR intracellular/kinase part; P41212 (Transcription factor ETV6)
Procedure: as §6, §7, §8, §9, §10, §11, §12

[2] = test system: Ba/F3-FL-EGFR-del19-C797S; experiment: CellTiter-Glo proliferation, Ba/F3-FL-EGFR-del19-C797S; assay type: cell-based; conditions: proliferation, 72 hours, CellTiter-Glo, read-out: Ba/F3-FL-EGFR-del19-C797S IC50/nM
Procedure: as §6, §7, §8, §9, §10, §11, §12

EGFR (wild-type) = EGFR (wild-type) (Homo sapiens, UniProt P00533); experiment: MSA (Mobility Shift Assay) kinase activity, EGFR wild type; assay type: biochemical; conditions: read-out: EGFR wt/ IC50/nM
Procedure: as §1, §2, §3, §4, §5

EGFR (L858R) = EGFR (L858R) (Homo sapiens, UniProt P00533, L858R); experiment: MSA (Mobility Shift Assay) kinase activity, EGFR-L858R; assay type: biochemical
Procedure: as §1, §2, §3, §4, §5

EGFR (L858R/T790M/C797S) = EGFR (L858R/T790M/C797S) (Homo sapiens, UniProt P00533, C797S/L858R/T790M); experiment: MSA (Mobility Shift Assay) kinase activity, EGFR-L858R-T790M-C797S; assay type: biochemical
Procedure: as §1, §2, §3, §4, §5

[3] = target: Ba/F3-FL-EGFR-L858R-T790M-C797S (Homo sapiens, UniProt P00533, T790M/C797S/L858R, cells depend on it); experiment: CellTiter-Glo proliferation, Ba/F3-FL-EGFR-L858R-T790M-C797S; assay type: cell-based; conditions: 72 hours, read-out: Ba/F3-FL-EGFR-L858R-T790M-C797S IC50/nM
Procedure: as §6, §7, §8, §9, §10, §11, §12

Ba/F3-FL-EGFR-L858R = Ba/F3-FL-EGFR-L858R (Homo sapiens, UniProt P00533, L858R, cells depend on it); experiment: CellTiter-Glo proliferation, Ba/F3-FL-EGFR-L858R; assay type: cell-based; conditions: 72 hours, read-out: Ba/F3-FL-EGFR-L858R IC50/nM
Procedure: as §6, §7, §8, §9, §10, §11, §12

T2 sequence (P00533 whole entry C797S/L858R, the tested form may be a part): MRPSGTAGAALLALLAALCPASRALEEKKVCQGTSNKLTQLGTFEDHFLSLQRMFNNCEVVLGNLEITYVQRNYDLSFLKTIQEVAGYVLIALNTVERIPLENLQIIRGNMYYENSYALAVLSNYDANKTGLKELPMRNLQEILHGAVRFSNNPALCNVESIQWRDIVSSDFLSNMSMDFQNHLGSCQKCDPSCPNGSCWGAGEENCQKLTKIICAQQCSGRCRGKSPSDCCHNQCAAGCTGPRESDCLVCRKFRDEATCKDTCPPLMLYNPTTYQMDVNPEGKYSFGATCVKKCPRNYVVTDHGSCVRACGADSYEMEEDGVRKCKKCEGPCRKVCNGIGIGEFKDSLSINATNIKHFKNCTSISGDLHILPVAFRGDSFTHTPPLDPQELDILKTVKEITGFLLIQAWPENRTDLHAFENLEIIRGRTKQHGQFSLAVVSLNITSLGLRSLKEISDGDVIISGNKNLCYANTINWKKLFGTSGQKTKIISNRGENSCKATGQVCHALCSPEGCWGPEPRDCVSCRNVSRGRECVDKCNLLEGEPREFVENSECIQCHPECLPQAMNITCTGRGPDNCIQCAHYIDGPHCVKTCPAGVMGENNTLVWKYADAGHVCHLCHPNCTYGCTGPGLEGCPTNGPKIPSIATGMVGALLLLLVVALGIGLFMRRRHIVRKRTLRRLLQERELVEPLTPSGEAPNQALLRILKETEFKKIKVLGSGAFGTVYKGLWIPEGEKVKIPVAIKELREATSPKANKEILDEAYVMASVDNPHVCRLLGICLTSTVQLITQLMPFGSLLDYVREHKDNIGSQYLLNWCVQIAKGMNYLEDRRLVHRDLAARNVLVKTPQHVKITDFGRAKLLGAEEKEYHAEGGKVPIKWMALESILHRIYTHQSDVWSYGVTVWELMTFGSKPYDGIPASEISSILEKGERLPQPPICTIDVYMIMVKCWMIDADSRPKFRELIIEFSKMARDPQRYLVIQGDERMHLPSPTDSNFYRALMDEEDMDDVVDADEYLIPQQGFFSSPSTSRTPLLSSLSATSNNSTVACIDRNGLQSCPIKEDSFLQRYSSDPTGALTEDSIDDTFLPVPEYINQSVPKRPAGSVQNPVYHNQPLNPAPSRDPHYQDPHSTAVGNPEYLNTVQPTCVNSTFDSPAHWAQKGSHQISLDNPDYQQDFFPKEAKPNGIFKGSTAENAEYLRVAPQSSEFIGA
Chain of EGFR (L858R/T790M/C797S) (P00533 25-1210 T790M/C797S/L858R): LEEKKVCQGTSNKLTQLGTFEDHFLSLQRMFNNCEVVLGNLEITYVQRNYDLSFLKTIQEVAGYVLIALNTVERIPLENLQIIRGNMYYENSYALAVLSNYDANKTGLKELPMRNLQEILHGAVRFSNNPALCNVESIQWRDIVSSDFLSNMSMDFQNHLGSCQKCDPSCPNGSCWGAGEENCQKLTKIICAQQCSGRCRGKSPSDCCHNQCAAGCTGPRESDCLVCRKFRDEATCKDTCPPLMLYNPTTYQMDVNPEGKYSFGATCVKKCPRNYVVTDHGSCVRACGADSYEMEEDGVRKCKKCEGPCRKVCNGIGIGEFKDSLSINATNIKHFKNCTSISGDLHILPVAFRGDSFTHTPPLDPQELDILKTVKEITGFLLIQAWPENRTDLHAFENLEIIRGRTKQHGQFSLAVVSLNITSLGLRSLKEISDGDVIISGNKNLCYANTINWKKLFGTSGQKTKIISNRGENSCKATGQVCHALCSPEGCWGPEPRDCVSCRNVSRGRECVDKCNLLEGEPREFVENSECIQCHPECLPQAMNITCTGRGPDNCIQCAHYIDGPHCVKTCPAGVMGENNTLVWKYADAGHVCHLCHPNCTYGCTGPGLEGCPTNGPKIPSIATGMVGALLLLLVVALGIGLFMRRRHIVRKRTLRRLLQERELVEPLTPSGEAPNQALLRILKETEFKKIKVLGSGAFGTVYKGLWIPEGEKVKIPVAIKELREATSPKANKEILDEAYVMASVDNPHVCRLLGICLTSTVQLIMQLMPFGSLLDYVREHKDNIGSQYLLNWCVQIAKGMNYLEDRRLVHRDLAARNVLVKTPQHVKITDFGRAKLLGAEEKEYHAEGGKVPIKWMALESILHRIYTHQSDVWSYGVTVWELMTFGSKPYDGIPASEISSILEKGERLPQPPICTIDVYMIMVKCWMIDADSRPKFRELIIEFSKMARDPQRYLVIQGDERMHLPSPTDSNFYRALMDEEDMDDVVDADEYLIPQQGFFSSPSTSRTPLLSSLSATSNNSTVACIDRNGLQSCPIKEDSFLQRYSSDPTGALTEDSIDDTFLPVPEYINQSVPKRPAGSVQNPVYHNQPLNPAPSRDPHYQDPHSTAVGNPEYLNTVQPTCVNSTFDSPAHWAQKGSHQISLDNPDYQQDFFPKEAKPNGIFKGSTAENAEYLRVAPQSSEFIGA
Chain of EGFR (L858R) (P00533 25-1210 L858R): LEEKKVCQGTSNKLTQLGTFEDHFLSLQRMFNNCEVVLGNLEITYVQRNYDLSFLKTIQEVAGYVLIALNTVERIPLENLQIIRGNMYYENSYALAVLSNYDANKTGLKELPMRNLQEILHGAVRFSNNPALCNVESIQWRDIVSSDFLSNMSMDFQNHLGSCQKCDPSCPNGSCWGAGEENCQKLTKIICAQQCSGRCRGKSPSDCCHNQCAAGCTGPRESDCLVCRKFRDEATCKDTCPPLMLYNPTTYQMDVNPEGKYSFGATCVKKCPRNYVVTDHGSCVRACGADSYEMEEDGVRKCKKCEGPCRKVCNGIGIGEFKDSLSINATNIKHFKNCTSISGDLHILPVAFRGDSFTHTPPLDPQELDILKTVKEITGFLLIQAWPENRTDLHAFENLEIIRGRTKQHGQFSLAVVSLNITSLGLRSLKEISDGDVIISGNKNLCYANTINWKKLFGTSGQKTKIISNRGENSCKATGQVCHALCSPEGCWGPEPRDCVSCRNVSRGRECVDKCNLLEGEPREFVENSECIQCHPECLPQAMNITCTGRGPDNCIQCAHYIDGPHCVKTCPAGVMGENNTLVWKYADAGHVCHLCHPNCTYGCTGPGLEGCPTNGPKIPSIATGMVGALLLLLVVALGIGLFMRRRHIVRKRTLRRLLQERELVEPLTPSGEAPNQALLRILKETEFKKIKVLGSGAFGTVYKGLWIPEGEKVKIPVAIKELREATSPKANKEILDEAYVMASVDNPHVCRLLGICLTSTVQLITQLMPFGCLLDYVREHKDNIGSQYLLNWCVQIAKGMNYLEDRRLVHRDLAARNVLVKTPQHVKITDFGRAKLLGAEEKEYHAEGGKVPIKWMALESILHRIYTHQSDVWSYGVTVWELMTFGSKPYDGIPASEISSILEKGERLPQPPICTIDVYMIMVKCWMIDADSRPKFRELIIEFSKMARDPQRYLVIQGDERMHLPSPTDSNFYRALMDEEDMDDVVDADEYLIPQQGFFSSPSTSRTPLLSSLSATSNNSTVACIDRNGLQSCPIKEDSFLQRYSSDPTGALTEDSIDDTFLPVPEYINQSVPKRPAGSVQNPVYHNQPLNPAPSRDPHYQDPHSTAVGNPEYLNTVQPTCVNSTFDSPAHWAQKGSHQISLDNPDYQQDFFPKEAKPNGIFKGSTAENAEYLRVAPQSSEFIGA
T1 sequence (P00533 whole entry, change not shown): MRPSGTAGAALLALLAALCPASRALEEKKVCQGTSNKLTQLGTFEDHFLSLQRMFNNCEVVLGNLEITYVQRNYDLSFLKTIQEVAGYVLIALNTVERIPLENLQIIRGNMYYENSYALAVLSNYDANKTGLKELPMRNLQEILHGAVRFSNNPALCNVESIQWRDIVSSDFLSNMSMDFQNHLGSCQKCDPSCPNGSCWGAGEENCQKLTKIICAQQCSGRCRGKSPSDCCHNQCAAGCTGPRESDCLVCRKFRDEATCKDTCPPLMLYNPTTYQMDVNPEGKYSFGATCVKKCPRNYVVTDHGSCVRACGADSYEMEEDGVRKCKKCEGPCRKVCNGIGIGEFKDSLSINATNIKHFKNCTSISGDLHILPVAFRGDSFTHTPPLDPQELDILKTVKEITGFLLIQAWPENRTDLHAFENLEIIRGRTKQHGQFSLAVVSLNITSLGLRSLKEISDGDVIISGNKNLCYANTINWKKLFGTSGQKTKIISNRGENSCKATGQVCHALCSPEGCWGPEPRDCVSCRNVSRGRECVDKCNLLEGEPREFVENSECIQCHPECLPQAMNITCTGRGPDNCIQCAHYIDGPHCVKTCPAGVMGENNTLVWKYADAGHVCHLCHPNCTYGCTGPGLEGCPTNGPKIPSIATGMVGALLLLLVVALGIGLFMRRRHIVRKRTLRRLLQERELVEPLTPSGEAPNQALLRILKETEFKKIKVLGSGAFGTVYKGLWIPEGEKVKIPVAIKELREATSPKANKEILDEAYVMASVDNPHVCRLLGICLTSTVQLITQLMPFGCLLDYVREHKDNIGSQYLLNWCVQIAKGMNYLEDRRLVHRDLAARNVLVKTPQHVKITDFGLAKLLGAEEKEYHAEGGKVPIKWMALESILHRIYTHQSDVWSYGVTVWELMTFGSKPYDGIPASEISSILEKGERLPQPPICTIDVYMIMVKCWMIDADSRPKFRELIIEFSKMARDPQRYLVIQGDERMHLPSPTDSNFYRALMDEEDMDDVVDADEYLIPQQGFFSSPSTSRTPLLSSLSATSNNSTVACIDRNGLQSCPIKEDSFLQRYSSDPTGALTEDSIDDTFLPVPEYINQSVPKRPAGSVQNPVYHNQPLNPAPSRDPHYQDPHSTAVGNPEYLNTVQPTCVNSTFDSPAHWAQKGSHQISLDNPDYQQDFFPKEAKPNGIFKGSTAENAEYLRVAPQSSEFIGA

| SMILES | IC50 (EGFR (L858R/C797S)) | GI50 (Ba/F3-FL-EGFR) | GI50 [1] | IC50 [2] | IC50 (EGFR (wild-type)) | IC50 (EGFR (L858R)) | IC50 (EGFR (L858R/T790M/C797S)) | GI50 [3] | GI50 (Ba/F3-FL-EGFR-L858R) | IC50 ([2]; 72 h) |
| --- | --- | --- | --- | --- | --- | --- | --- | --- | --- | --- |
| CC(C)c1ccc(N2CC(CS(C)(=O)=O)C2)c2cnc(Nc3ccnc(-c4cn[nH]c4)n3)cc12 [Compound H3] | 4.7 nM | 854 nM | 188 nM | 216 nM | 11.7 nM | 5.6 nM | 0.7 nM | 462 nM | – | – |
| CC(C)c1ccc(N2CC(CC(N)=O)C2)c2cnc(Nc3ccnc(-c4cnn(S(=O)(=O)C5CC5)c4)n3)cc12 [Compound H4] | 2.9 nM | 628 nM | 39 nM | – | 6.1 nM | 2.1 nM | 0.3 nM | 146 nM | 46 nM | – |
| CCCS(=O)(=O)n1cc(-c2nccc(Nc3cc4c(C(C)C)ccc(N5CC(CS(C)(=O)=O)C5)c4cn3)n2)cn1 [Compound H6] | 2.2 nM | 559 nM | 40 nM | 48 nM | 5.2 nM | 1.5 nM | 0.3 nM | 90 nM | – | – |
| CC(C)c1ccc(N2CC(CS(C)(=O)=O)C2)c2cnc(Nc3ccnc(-c4cnn(S(=O)(=O)C5CCOCC5)c4)n3)cc12 [Compound H10] | 7.2 nM | 1080 nM | 54 nM | – | 30.3 nM | 8.1 nM | 0.34 nM | 219 nM | 94 nM | 101 nM |
| CC(C)c1ccc(N2CC(CS(C)(=O)=O)C2)c2cnc(Nc3ccnc(-c4cnn(CC(F)(F)F)c4)n3)cc12 [Compound H11] | 5.1 nM | > 10000 nM | 37 nM | – | 24.3 nM | 5.8 nM | 0.44 nM | 123 nM | 40 nM | 97 nM |
| CC(C)c1ccc(N2CC(CS(C)(=O)=O)C2)c2cnc(Nc3ccnc(-c4cnn(S(=O)(=O)C5CCC5)c4)n3)cc12 [Compound H13] | 2.5 nM | 640 nM | 18 nM | – | 11.4 nM | 1.8 nM | 0.91 nM | 158 nM | 44 nM | 23 nM |
| CC(C)c1ccc(N2CC(CS(C)(=O)=O)C2)c2cnc(Nc3ccnc(-c4cnn(S(=O)(=O)C5(C)CC5)c4)n3)cc12 [Compound H18] | 5 nM | 658 nM | 46 nM | – | 7.3 nM | 2.6 nM | 0.6 nM | 150 nM | 73 nM | 69 nM |
| CC(C)c1ccc(N2CC3(CC(S(C)(=O)=O)C3)C2)c2cnc(Nc3ccnc(-c4cnn(S(=O)(=O)C5CC5)c4)n3)cc12 [Compound P3] | 10.6 nM | 889 nM | 43 nM | – | 17.9 nM | 5.8 nM | 0.71 nM | 248 nM | 55 nM | – |
| CC(C)c1ccc(N2CC(CC(N)=O)C2)c2cnc(Nc3ccnc(N4CCC(O)C(F)C4)n3)cc12 (stereo not shown) [Compound P7] | 22 nM | 7380 nM | 271 nM | – | 50.5 nM | 14 nM | 0.21 nM | 554 nM | 771 nM | – |
| CC(C)c1ccc(N2CC(c3ccc[nH]c3=O)C2)c2cnc(Nc3ccnc(N4CCC(O)C(F)C4)n3)cc12 (stereo not shown) [Compound P22] | > 100 nM | – | – | – | > 100 nM | > 100 nM | 3.2 nM | – | – | – |
| CC(C)c1ccc(N2CC(NS(=O)(=O)C3CC3)C2)c2cnc(Nc3ccnc(N4CCC(O)C(F)C4)n3)cc12 (stereo not shown) [Compound P23] | 8.2 nM | – | – | – | 33.8 nM | 7.8 nM | 0.11 nM | – | – | – |
| CC(C)c1ccc(N2C[C@H](NS(C)(=O)=O)[C@H]2C)c2cnc(Nc3ccnc(N4CCC(O)C(F)C4)n3)cc12 (stereo partly shown) [Compound P25] | 1.22 nM | 618 nM | 15 nM | – | 5.1 nM | 0.77 nM | 0.08 nM | 11 nM | 42 nM | 71 nM |
| CC(C)c1ccc(N2C[C@@H](NS(C)(=O)=O)[C@@H]2C)c2cnc(Nc3ccnc(N4CCC(O)C(F)C4)n3)cc12 (stereo partly shown) [Compound P26] | > 100 nM | – | – | – | > 100 nM | > 100 nM | 30.9 nM | – | – | – |
| CC(C)c1ccc(N2CC(NS(=O)(=O)c3cccnc3)C2)c2cnc(Nc3ccnc(N4CCC(O)C(F)C4)n3)cc12 (stereo not shown) [Compound P28] | 27 nM | – | – | – | 64 nM | 13 nM | 0.34 nM | – | – | – |
| CC(C)c1ccc(N2CC(CS(C)(=O)=O)C2)c2cnc(Nc3ccnc(N4CCC(O)C(F)C4)n3)cc12 (stereo not shown) [Control A, reference compound] | 11 nM | 2020 nM | 52 nM | – | 30.2 nM | 7.1 nM | 0.19 nM | 38 nM | 176 nM | – |
